Source: US20240335404A1, “SUBSTITUTED ESTERS CONTAINING POLYOLS AND SACCHARIDES FOR TREATING HEPATOTOXICITY AND FATTY LIVER DISEASES” (SINEW PHARMA INC., priority 2015, published 2024)

What was measured:
fatty liver = test: High fat diet-induced fatty liver in B6 mice; type: in vivo; settings: HFD mice; for GSH / Gpx / Grd / SOD: liver; for ALT / AST / TC in liver / TG in liver: administration period of 4 weeks; for liver TC / liver TG: 4 or 8 weeks; for ALT and AST values: compounds administered separately
Experimental: More than four mice were used in each group of the pre-test, while more than twelve mice were used in each group of the confirmatory test. […] The animal test was carried out according to the guideline for animal experiment of National Health Research Institutes. […] The weight of mice was recorded once a week. The tested animals were grouped randomly into Blank, High Fat Diet control (HFD), Positive Control (PS), and Test group. The animals of Blank were fed with normal feed. The animals of HFD were fed with high fat feed. […] The animals of Test group were fed with high fat feed, and additionally fed with test compounds by a tube. The animals of Blank were fed casually with normal feed for 12 weeks, while the animals of HFD, PS, and Test group were fed casually with high fat feed for 12 weeks. After 8 weeks of feeding, the animals of Blank and HFD were fed with deionized water by a tube once a day; the animals of PS were fed with silymarin by a tube once a day; and the animals of Test Group were fed with test compounds by a tube once a day for a duration of 4 or 8 weeks. Before testing and in the eighth, twelfth, and sixteenth week after testing, blood was collected from the cheek or the heart. At the end of testing, all mice were weighted and then sacrificed, and blood was collected from the cheek or the heart simultaneously. The blood specimens of mice rested at room temperature for one hour to clot, and then the serum was separated by centrifugation in a refrigeration centrifuge at 15,700×g at 4° C. for 5 minutes. Afterwards, biochemical indices of liver function, including aspartate transaminase (AST), alanine aminotransferase (ALT), triglyceride (TG), total cholesterol (TCHO/TC), low-density lipoprotein cholesterol (LDL-C), and high-density lipoprotein cholesterol (HDL-C), were detected by the automatic blood biochemistry analyzer. In addition, abdominal fat and liver specimens were taken from the abdomens of sacrificed mice and weighted to compare the weight of fat and liver and obtain the ratio of liver weight to body weight. […] The cut sections proceeded with H&E staining for histopathological observation. Moreover, the rest of the liver was frozen for preservation and detection of the contents of triglyceride and total cholesterol in the liver. Furthermore, the liver function of animals of each group were analyzed by Galactose Single Point Method, which was recognized and recommended for quantification of remaining liver function in clinical use by U.S. FDA and Ministry of Health and Welfare, Taiwan. […] One hour after the administration, about 0.5 ml of whole blood was taken by using a filter paper to evaluate liver function of mice. The higher the value of GSP was, the worse the remaining liver function would be. (FDA: “Guidance for Industry: Pharmacokinetics in Patients with Impaired. Hepatic Function-Study Design, Data Analysis and Impact on Dosing and. Labeling. 2003. At the end of the test, all mice were sacrificed. […] Afterwards, xylene was replaced with hot paraffin solution. At last, the tissue was embedded with paraffin solution. The finished paraffin specimen was cut into […] paraffin sections by the microtome. The sections were pasted on clean slides, dried at 37° C., and then stained by H&E staining. In order to observe the changes of lesion, fat accumulation, necrosis, or fibrosis in liver cells when there was an ongoing liver damage, liver tissues were H&E stained to evaluate the degree of liver fat accumulation. All the histopathological sections were cut from the same position on the largest right lobe of liver for eliminating bias in subjective observation, and then subject to pathological staining. As for the assessment of semi-quantitative analysis in pathology, it had to be confirmed by a physician or a veterinary pathologist who conducted a double-blind analysis to score (NAS score) and compare all the sections without knowing the test design. […]

CYP2E1 = CYP2E1 (Homo sapiens, UniProt P05181); test: CYP2E1 inhibitory activity assay in human liver microsomes (CZX to 6-OH-CZX)
Experimental: After addition of the test sample, the amount of CYP450 isozyme metabolite standard 6-OH-CZX (6-Hydroxy-Chlorzoxazone) is specific used for calculation of the CYP450 isozyme (CYP2E1) inhibition ratio of the test sample by using the amount of 6-OH-CZX of the control group as the baseline.
All samples were tested in triplicate. To determine the percentage inhibition, each test compound was dissolved in 1, 2, 4 μg/mL to three different concentrations. The CYP2E1 activity levels in the presence of the test compounds were compared with the control incubations. The 500-μL reaction mixture, containing 0.5 mg of microsomal protein, was incubated with 320 μM CZX in the presence of 5 mM MgCl2 and 1 mM NADPH in 50 mM phosphate buffer with pH 7.4 at 37° C. for 30 min. The reaction was terminated by ice-cold acetonitrile, and then 4-hydroxyl tolbutamide was added as an internal standard. The organic phase was evaporated to dryness and reconstituted into the mobile phase (methanol:water=1:1) prior to liquid chromatography-tandem mass spectrometry (LC-MS/MS) analysis. An API 3000 triple-quadrupole mass spectrometer equipped with an ion-spray (ESI) source was used to determine 6-OH-CZX in the human liver microsomes. The ESI interface was used in the positive-ion mode. The 6-OH-CZX was monitored at a transition of m/z 284.5→185.9.
The CYP450 isozyme activity levels in the presence of the test compounds were compared with the control incubations.

[1] = 1.5 mg/kg, test period of 4 weeks
[2] = 7.5 mg/kg, test period of 4 weeks
[3] = 4.5 mg/kg, test period of 4 weeks

Sequence of CYP2E1 (P05181 whole entry): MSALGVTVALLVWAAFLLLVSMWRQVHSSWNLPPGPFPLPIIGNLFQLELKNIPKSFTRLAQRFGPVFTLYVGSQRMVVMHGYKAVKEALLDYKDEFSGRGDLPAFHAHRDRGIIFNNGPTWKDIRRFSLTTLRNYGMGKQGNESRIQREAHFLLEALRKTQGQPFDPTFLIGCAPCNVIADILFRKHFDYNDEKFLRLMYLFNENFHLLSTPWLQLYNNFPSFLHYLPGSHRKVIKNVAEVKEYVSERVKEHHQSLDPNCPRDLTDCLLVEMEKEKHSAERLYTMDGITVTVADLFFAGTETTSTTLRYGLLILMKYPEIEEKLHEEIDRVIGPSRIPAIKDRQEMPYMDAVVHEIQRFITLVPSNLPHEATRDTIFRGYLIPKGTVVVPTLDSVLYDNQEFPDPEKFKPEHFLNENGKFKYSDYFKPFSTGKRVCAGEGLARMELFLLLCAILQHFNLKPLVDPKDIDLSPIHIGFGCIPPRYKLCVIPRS

For `OC[C@H]1O[C@H](O[C@]2(CCl)O[C@H](CCl)[C@@H](O)[C@@H]2O)[C@H](O)[C@@H](O)[C@H]1Cl` [Sucralose], the “weight of abdominal fat” value (fatty liver) was “reduce the weight of abdominal fat in animals significantly”, the GSH (fatty liver; [1]) was 1448.0 ± 281.5 U/L and the Gpx (fatty liver; [1]) was 2995.0 ± 651.1 U/L. For the same compound, the Grd (fatty liver; [1]) was 100.0 ± 18.6 U/L, the SOD (fatty liver; [1]) was 373.0 ± 50.4 U/L and the GSH (fatty liver; [2]) was 1609.1 ± 201.1 U/L. It also gave a Gpx (fatty liver; [2]) of 3334.0 ± 377.7 U/L, a Grd (fatty liver; [2]) of 90.4 ± 17.2 U/L and an SOD (fatty liver; [2]) of 399.0 ± 34.5 U/L. The Abdominal fat weight (fatty liver; 1.5 mg/kg) was 2.1 ± 0.6 g, the “Increase of body weight” value (fatty liver; 1.5 mg/kg) was 17.0 ± 5.6 g and the Liver weight (fatty liver; 1.5 mg/kg) was 1.5 ± 0.2 g. It also gave an ALT (fatty liver; 1.5 mg/kg) of 30.9 ± 16.8 U/L, an AST (fatty liver; 1.5 mg/kg) of 127.0 ± 31.2 U/L and a TC in liver (fatty liver; 1.5 mg/kg) of 3.0 ± 0.9 mg/g liver. For the same compound, the TG in liver (fatty liver; 1.5 mg/kg) was 68.9 ± 37.5 mg/g liver, the Abdominal fat weight (fatty liver; 7.5 mg/kg) was 2.4 ± 0.3 g and the “Increase of body weight” value (fatty liver; 7.5 mg/kg) was 8.3 ± 5.4 g. For the same compound, the Liver weight (fatty liver; 7.5 mg/kg) was 1.4 ± 0.1 g, the ALT (fatty liver; 7.5 mg/kg) was 32.3 ± 10.1 U/L and the AST (fatty liver; 7.5 mg/kg) was 74.3 ± 18.6 U/L. For the same compound, the TC in liver (fatty liver; 7.5 mg/kg) was 5.0 ± 0.9 mg/g liver, the TG in liver (fatty liver; 7.5 mg/kg) was 56.8 ± 20.0 mg/g liver and the “liver TC” value (fatty liver) was “reduce TC in liver significantly”. For the same compound, the “liver TG” value (fatty liver) was “reduce TG in liver significantly”, the “liver antioxidant activity” value (fatty liver; 4 weeks) was “improve antioxidant activity significantly” and the “ALT and AST values” (fatty liver) was “reduce ALT and AST values significantly”. For the same compound, the “P450 2E1 inhibitor activity” value (CYP2E1) was “effective as P450 2E1 inhibitors”, the “CYP 2E1 inhibition ratio (%)” value (CYP2E1; 1 μg/mL) was 25.1 ± 1.4% and the “CYP 2E1 inhibition ratio (%)” value (CYP2E1; 2 μg/mL) was 30.2 ± 2.8%. The “CYP 2E1 inhibition ratio (%)” value (CYP2E1; 4 μg/mL) was 32.9 ± 4.6%.
`OC[C@@H](O)[C@@H](O)[C@H](O)[C@H](O)CO` [Mannitol] was tested, and the “weight of abdominal fat” value (fatty liver) was “reduce the weight of abdominal fat in animals significantly”, the GSH (fatty liver; [1]) was 1502.5 ± 276.9 U/L and the Gpx (fatty liver; [1]) was 2580.0 ± 555.2 U/L. It also gave a Grd (fatty liver; [1]) of 95.3 ± 22.1 U/L, an SOD (fatty liver; [1]) of 367.3 ± 35.6 U/L and a GSH (fatty liver; [3]) of 1605.1 ± 305.9 U/L. For the same compound, the Gpx (fatty liver; [3]) was 3423.3 ± 547.8 U/L, the Grd (fatty liver; [3]) was 110.1 ± 18.4 U/L and the SOD (fatty liver; [3]) was 429.2 ± 85.2 U/L. It also gave a GSH (fatty liver; [2]) of 2147.7 ± 459.1 U/L, a Gpx (fatty liver; [2]) of 3738.3 ± 665.1 U/L and a Grd (fatty liver; [2]) of 117.6 ± 32.0 U/L. The SOD (fatty liver; [2]) was 462.8 ± 52.8 U/L, the Abdominal fat weight (fatty liver; 1.5 mg/kg) was 2.0 ± 0.3 g and the “Increase of body weight” value (fatty liver; 1.5 mg/kg) was 10.9 ± 7.4 g. The Liver weight (fatty liver; 1.5 mg/kg) was 1.4 ± 0.2 g, the ALT (fatty liver; 1.5 mg/kg) was 40.8 ± 11.4 U/L and the AST (fatty liver; 1.5 mg/kg) was 187.2 ± 142.1 U/L. For the same compound, the TC in liver (fatty liver; 1.5 mg/kg) was 3.4 ± 0.6 mg/g liver, the TG in liver (fatty liver; 1.5 mg/kg) was 61.8 ± 32.6 mg/g liver and the Abdominal fat weight (fatty liver; 4.5 mg/kg) was 2.7 ± 0.3 g. The “Increase of body weight” value (fatty liver; 4.5 mg/kg) was 11.1 ± 7.7 g, the Liver weight (fatty liver; 4.5 mg/kg) was 1.4 ± 0.2 g and the ALT (fatty liver; 4.5 mg/kg) was 44.5 ± 15.9 U/L. For the same compound, the AST (fatty liver; 4.5 mg/kg) was 107.6 ± 54.3 U/L, the TC in liver (fatty liver; 4.5 mg/kg) was 7.2 ± 2.8 mg/g liver and the TG in liver (fatty liver; 4.5 mg/kg) was 71.5 ± 45.5 mg/g liver. The Abdominal fat weight (fatty liver; 7.5 mg/kg) was 2.4 ± 0.3 g, the “Increase of body weight” value (fatty liver; 7.5 mg/kg) was 10.3 ± 8.5 g and the Liver weight (fatty liver; 7.5 mg/kg) was 1.4 ± 0.1 g. For the same compound, the ALT (fatty liver; 7.5 mg/kg) was 25.0 ± 10.8 U/L, the AST (fatty liver; 7.5 mg/kg) was 63.3 ± 7.7 U/L and the TC in liver (fatty liver; 7.5 mg/kg) was 4.7 ± 1.2 mg/g liver. For the same compound, the TG in liver (fatty liver; 7.5 mg/kg) was 53.8 ± 24.4 mg/g liver, the NAS (fatty liver; [2]) was 1.7 ± 0.8 mg/g liver and the “reduction in ALT value” (fatty liver; 4-week treatment, p<0.005) was “about 64%”. The “reduction in AST value” (fatty liver; 4-week treatment, p<0.005) was “about 60%”, the “liver TC” value (fatty liver) was “reduce TC in liver significantly” and the “liver TG” value (fatty liver) was “reduce TG in liver significantly”. The “liver antioxidant activity” value (fatty liver; 4 weeks) was “improve antioxidant activity significantly”, the “liver damage, NAS” value (fatty liver; 4 weeks) was “reduce liver damage significantly” and the “ALT and AST values” (fatty liver) was “reduce ALT and AST values significantly”. For the same compound, the “liver tissue sections, H&E” value (fatty liver; treated for 4 weeks, FIG. 5) was “large vesicular fat droplets within liver cells in liver tissue section were significantly reduced”, the “P450 2E1 inhibitor activity” value (CYP2E1) was “effective as P450 2E1 inhibitors” and the “CYP 2E1 inhibition ratio (%)” value (CYP2E1; 1 μg/mL) was 30.1 ± 2.4%. For the same compound, the “CYP 2E1 inhibition ratio (%)” value (CYP2E1; 2 μg/mL) was 34.1 ± 4.1% and the “CYP 2E1 inhibition ratio (%)” value (CYP2E1; 4 μg/mL) was 40.3 ± 1.6%.
